Measurements taken from patent publication EP4678172A1, “USE OF NAPHTHYLAMIDE COMPOUND IN TREATMENT OF MENINGIOMA” (Shanghai Runshi Medical Technology Co., Ltd, priority 2023, dated 2024).

Key:
[1] = system: CH157-MN; assay: Transwell chamber assay (invasion); assay type: cell-based, human; settings: CH157-MN, 2, 5, 10 µM, 24 h; with increasing concentration
Procedure: (§1) • (1) The upper chamber of the pre-cooled Transwell chamber was coated with 50 µL of matrigel, and the matrigel-coated chamber was incubated in an incubator at 37 °C for 6-8 h to allow the matrigel to polymerize into a gel. After 100 µL of a serum-free culture medium was added to each well, the chamber was placed in an incubator for 1 h to allow the basement membrane hydration. The liquid in the upper chamber was removed, and the IOMM-Lee single cell suspension in the logarithmic growth phase was adjusted to a cell density of 2 × 10^5 cells/mL using the serum-free DMEM culture medium; 200 µL of the cell suspension was added to the Transwell chamber; and the culture liquid in the lower chamber was a DMEM culture medium with 20% FBS. Compound (I) samples at different concentrations (0 µM, 0.5 µM, 1 µM, and 2 µM, respectively) were added to the chamber. The culture was finished 24 h later; and the cells in the chamber were removed with a cotton swab, fixed with 4% paraformaldehyde for 20 min, washed with PBS 3 times, stained with crystal violet for 30 min, and observed under a microscope. The invading cells were counted. • (2) With reference to the experimental method (1), the concentrations in the compound (I) treatment groups were replaced by 2 µM, 5 µM, and 10 µM, respectively, and the used human meningioma cell line was IOMM-Lee or CH157-MN.

[2] = system: IOMM-Lee; assay: Transwell chamber assay (invasion); assay type: cell-based, human; settings: IOMM-Lee, 0.5, 1, 2 µM and 2, 5, 10 µM, 24 h; with increasing concentration
Procedure: as §1

[3] = system: patients with meningioma; assay: Phase I clinical trial, tumor assessment by RANO criteria for meningioma; assay type: in vivo, human; settings: for C2 target lesion shrinkage / target lesion shrinkage: head MRI; for target lesion shrinkage: after 6 cycles
Procedure: Compound (I) is currently undergoing phase I clinical trials to evaluate the preliminary efficacy on patients with meningioma.
Drug: compound (I) oral solution, 10-25 mg/day, once daily.
If no serious adverse events occurred, subsequent treatment cycles (21 days for each cycle) of administration may begin until progressive disease (PD) or intolerable toxicity occurred.
The efficacy on tumors was evaluated according to the RANO Criteria for Meningioma (Huang, Raymond Y et al. Proposed response assessment and endpoints for meningioma clinical trials: report from the Response Assessment in Neuro-Oncology Working Group. Neuro-oncology. vol. 21, 1 (2019): 26-36. doi:10.1093/neuonc/noy137). Target lesions were selected from tumor lesions with enhancement according to the criteria and precisely measured. The tumor treatment efficacy on the target lesions was confirmed by comparing the changes in the measured values. […] In addition, the improvement and deterioration of clinical symptoms of patients and the change in steroid hormone doses for symptomatic treatment of neurological symptoms were also used as evaluation indexes in tumor assessment. A tumor assessment was performed at baseline prior to the first administration and then performed once every 6 weeks during the administration until progressive disease (PD) occurred or a new anti-tumor treatment started.

[4] = Animal long-term toxicity test, conversion to human maximum tolerated dose; assay type: in vivo; settings: converted from animal long-term toxicity test, human body weight of 60 kg
Procedure: A specific dose and administration frequency can be determined by a skilled physician according to conventional skills allowing for factors such as the route of administration, the health condition of the patient, etc. In the first dose escalation study (phase I trial) in a human, the most sensitive animal species were selected to calculate the maximum recommended starting dose for clinical trials according to the pre-clinical toxicology study. The starting dose was calculated according to the calculation methods recommended by "Technical Guidelines for Non-Clinical Research on Anti-Cancer Drugs" and other guidelines. In some embodiments, in the phase 1 clinical trial of compound (I), in order to ensure the safety of subjects, in combination with the operability of clinical trials and formulation specification, the starting dose of compound (I) for the phase I clinical trial was designed to be 5 mg. Based on the results of an animal long-term toxicity test, the maximum tolerated dose for the human body is converted into 200 mg according to the human body weight of 60 kg. In the phase 1 clinical trial of compound (I), the safety, tolerance, and efficacy of the continuous administration regimen of a daily administration dose of 5 mg-200 mg were researched. […]

[5] = 34 meningioma patients, oral solution 10-25 mg/day
[6] = RANO criteria for meningioma, 34 meningioma patients, oral solution 10-25 mg/day
[7] = by Feb. 2, 2024, 32 patients completed the tumor assessment, oral solution 10-25 mg/day
[8] = by Jan. 16, 2023, 5 patients completed the tumor assessment, oral solution 10-25 mg/day
[9] = of 34 meningioma patients, oral solution 10-25 mg/day

## Cc1cc(NC(=O)c2cccc3cc(-c4cccc5[nH]nc(N)c45)ccc23)ccc1F [compound (I)]
[1]
  invasion rates: significantly decreased
[2]
  invasion rates: significantly decreased
[3]; [5]
  adverse events associated with the administration (severity): mostly mild and moderate
  adverse events with an incidence of greater than 20%: hypertension, decreased platelet count, increased blood lactate dehydrogenase, sinus bradycardia, proteinuria, increased aspartate aminotransferase, increased alanine aminotransferase, hypokalemia, hyperlipidemia, decreased neutrophil count, decreased leukocyte count, diarrhea, and anemia
[3]; [6]
  disease control rate: 82.4%
  objective remission rate: 29.41%
[3]; Typical case 1: anaplastic meningioma WHO grade III, oral solution 15 mg once daily, two cycles
  C2 target lesion shrinkage: 56%
[3]; Typical case 1: oral solution 15 mg once daily
  adverse events during the treatment: No adverse events
[3]; Typical case 1: oral solution 15 mg once daily, two cycles
  clinical symptoms reported by subject: significantly mitigated head-distending pain
[3]; Typical case 2: baseline blindness in both eyes, oral solution 15 mg once daily, after two cycles
  clinical symptoms of subject: vision recovery and self-care recovery
[3]; Typical case 2: meningioma (fibrous) WHO grade I, oral solution 15 mg once daily, two cycles
  C2 target lesion shrinkage: 36%
[3]; Typical case 2: oral solution 15 mg once daily, recovered after administration was suspended
  main adverse event during the treatment: mild or moderate hypertension
[3]; Typical case 3: malignant meningioma, oral solution 15 mg once daily
  C2 target lesion shrinkage: 56%
[3]; Typical case 3: oral solution 15 mg once daily, recovered after taking a hypotensor
  main adverse event during the treatment: mild or moderate hypertension
[3]; Typical case 4: atypical meningioma WHO grade II, oral solution 20 mg once daily
  target lesion shrinkage: 61.47%
[3]; Typical case 4: oral solution 20 mg once daily, recovered after symptomatic treatment
  main adverse events during the treatment: mild proteinuria, decreased platelet count, decreased neutrophil count, decreased leucocyte count, and increased alanine aminotransferase
[3]; Typical case 5: oral solution 25 mg once daily, mitigated/recovered after symptomatic treatment
  main adverse events during the treatment: mild hypertension, decreased platelet count, decreased neutrophil count, and increased alanine aminotransferase
[3]; Typical case 5: papillary meningioma WHO grade III, oral solution 25 mg once daily
  target lesion shrinkage: 36.73%
[3]; [7]
  MR cases: 6
  PR cases: 4
[3]; [8]
  MR case: 1
  PR cases: 2
[3]; [9]
  patients exhibited tumor shrinkage after administration: 26 patients
  patients exhibiting tumor shrinkage after administration, share of all patients: 76.5%
[4]
  maximum tolerated dose for the human body: 200 mg
